The target of data set [1] is T1, OATP1B3 (Homo sapiens, UniProt Q9NPD5).
T1 construct: gene SLCO1B3; stably expressed in HEK293T cells (Shanghai Genechem), sodium butyrate induced
T1 sequence (Q9NPD5 1-702): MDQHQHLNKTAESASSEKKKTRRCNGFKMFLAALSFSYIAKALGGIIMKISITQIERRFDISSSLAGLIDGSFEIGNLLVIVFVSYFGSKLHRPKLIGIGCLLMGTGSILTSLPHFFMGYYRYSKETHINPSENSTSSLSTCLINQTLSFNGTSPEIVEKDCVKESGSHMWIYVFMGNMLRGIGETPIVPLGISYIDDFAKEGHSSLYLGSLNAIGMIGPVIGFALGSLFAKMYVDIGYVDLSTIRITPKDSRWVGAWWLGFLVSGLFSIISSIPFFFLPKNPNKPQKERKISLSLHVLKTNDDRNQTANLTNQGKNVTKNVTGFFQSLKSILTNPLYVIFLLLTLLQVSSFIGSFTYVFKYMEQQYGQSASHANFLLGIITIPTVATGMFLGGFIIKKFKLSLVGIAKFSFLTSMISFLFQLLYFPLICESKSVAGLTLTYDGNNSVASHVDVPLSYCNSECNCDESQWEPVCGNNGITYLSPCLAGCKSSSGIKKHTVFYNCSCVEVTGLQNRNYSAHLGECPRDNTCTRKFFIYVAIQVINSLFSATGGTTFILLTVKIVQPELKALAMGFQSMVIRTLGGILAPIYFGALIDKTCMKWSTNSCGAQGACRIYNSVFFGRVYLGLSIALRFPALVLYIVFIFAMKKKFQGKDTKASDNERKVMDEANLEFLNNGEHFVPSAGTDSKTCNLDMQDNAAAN
The experiment in a line: inhibition of ophiopogonin D uptake in HEK293T cells, LC-MS. The class given is cell-based. The text has this:
inhibition of ophiopogonin D uptake in HEK293T cells, LC-MS on OATP1B3

Data set [2] deals with T1, OATP1B3. The experiment in a line: concentration-dependent uptake in HEK293T cells, LC-MS. Format: cell-based. The text has this: concentration-dependent uptake in HEK293T cells, LC-MS on OATP1B3 | uptake process of OPD for OATP1B3 followed a typical Michaelis-Menten equation

Each structure is given as a SMILES string. pIC50: −log10 of the molar value.

Experimental findings from paper PMC6113708, “Ginsenoside Rb1 and Rd Remarkably Inhibited the Hepatic Uptake of Ophiopogonin D in Shenmai Injection Mediated by OATPs/oatps” (Frontiers in Pharmacology, 2018) are described below.

One may read the pIC50 as −log10 of the IC50, conventionally taken in molar units. A high value points to a small IC50. `CC(C)=CCC[C@](C)(O[C@@H]1O[C@H](CO[C@@H]2O[C@H](CO)[C@@H](O)[C@H](O)[C@H]2O)[C@@H](O)[C@H](O)[C@H]1O)[C@H]1CC[C@]2(C)[C@@H]1[C@H](O)C[C@@H]1[C@@]3(C)CC[C@H](O[C@@H]4O[C@H](CO)[C@@H](O)[C@H](O)[C@H]4O[C@@H]4O[C@H](CO)[C@@H](O)[C@H](O)[C@H]4O)C(C)(C)[C@@H]3CC[C@]12C` [ginsenoside Rb1] gave a pIC50 in data set [1] of 6.24.

In data set [1], `CC(C)=CCC[C@](C)(O[C@@H]1O[C@H](CO)[C@@H](O)[C@H](O)[C@H]1O)[C@H]1CC[C@]2(C)[C@@H]1[C@H](O)C[C@@H]1[C@@]3(C)CC[C@H](O[C@@H]4O[C@H](CO)[C@@H](O)[C@H](O)[C@H]4O[C@@H]4O[C@H](CO)[C@@H](O)[C@H](O)[C@H]4O)C(C)(C)[C@@H]3CC[C@]12C` [ginsenoside Rd] gave a pIC50 of 6.49.

In general, Km refers to the substrate concentration at which the rate is half of its maximum. As for `C[C@@H]1CC[C@@]2(OC1)O[C@H]1C[C@H]3[C@@H]4CC=C5C[C@@H](O)C[C@@H](O[C@@H]6O[C@H](C)[C@H](O)[C@H](O[C@@H]7OC[C@@H](O)[C@H](O)[C@H]7O)[C@H]6O[C@@H]6O[C@@H](C)[C@H](O)[C@@H](O)[C@H]6O)[C@]5(C)[C@H]4CC[C@]3(C)[C@H]1[C@@H]2C` [Ophiopogonin D], in data set [2], the Km amounted to 11.3 µM.
